# Assay results from US11746100B2 (GLOBAL BLOOD THERAPEUTICS, INC., priority 2020, dated 2023).
# Target: T1, human ferroportin (Homo sapiens, UniProt Q9NP59)
# T1 construct: luciferase reporter (read with the Nano-Glo Luciferase Assay System); expressed in transfected cells; host or cells: CHO cells, stably transfected, expression induced with doxycycline
# T1 sequence (Q9NP59 1-571): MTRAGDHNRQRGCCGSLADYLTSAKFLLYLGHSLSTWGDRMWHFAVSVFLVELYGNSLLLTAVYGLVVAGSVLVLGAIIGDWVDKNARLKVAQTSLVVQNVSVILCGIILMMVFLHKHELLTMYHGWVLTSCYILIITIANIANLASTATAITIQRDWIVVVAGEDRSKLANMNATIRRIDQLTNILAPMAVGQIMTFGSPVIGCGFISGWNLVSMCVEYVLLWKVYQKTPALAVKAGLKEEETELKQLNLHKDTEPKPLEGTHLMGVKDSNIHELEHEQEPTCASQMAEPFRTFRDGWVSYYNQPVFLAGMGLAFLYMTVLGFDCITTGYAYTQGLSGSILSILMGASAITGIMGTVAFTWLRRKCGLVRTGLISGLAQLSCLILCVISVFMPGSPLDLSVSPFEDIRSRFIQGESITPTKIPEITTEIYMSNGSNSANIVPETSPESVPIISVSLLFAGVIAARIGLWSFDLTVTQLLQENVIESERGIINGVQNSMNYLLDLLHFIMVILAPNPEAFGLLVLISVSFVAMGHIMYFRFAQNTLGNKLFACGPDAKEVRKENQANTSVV
# Assay: Biological in-vitro ferroportin internalization assay (luciferase reporter)
# Assay type: cell-based
# Conditions: average pEC50; stably-transfected CHO cell line expressing human ferroportin tagged to a luciferase reporter; 6 h incubation with test compound
# Method in brief: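 Stably transfected CHO cells expressing luciferase-tagged human ferroportin, plated 24 h with ferric ammonium citrate and induced with doxycycline for 24 h. Compounds incubated 6 h, then luciferase activity measured by Nano-Glo; average pEC50 reported.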
row,SMILES,pEC50
1,"CN(CC(=O)Nc1ccc(OC(F)(F)F)nc1)c1nc(-c2cc3ccccc3cn2)nc2c1CCC2 [Compound 234, 2-{[2-(isoquinolin-3-yl)-5H,6H,7H-cyclopenta[d]pyrimidin-4-yl](methyl)amino}-N-[6-(trifluoromethoxy)pyridin-3-yl]acetamide]",6.4
2,"Cc1cncc(NC(=O)CN(C)c2nc(-c3cc4ccccc4cn3)nc3c2CCC3)c1 [Compound 235, 2-{[2-(isoquinolin-3-yl)-5H,6H,7H-cyclopenta[d]pyrimidin-4-yl](methyl)amino}-N-(5-methylpyridin-3-yl)acetamide]",7.5
3,"CN(CC(=O)Nc1cn(C)cn1)c1nc(-c2cc3ccccc3cn2)nc2c1CCC2 [Compound 236, 2-{[2-(isoquinolin-3-yl)-5H,6H,7H-cyclopenta[d]pyrimidin-4-yl](methyl)amino}-N-(1-methyl-1H-imidazol-4-yl)acetamide]",7.4
4,"CN(CC(=O)Nc1ccn(C)n1)c1nc(-c2cc3ccccc3cn2)nc2c1CCC2 [Compound 237, 2-{[2-(isoquinolin-3-yl)-5H,6H,7H-cyclopenta[d]pyrimidin-4-yl](methyl)amino}-N-(1-methyl-1H-pyrazol-3-yl)acetamide]",7.1
5,"COCCOc1ccnc(-c2nc3c(c(N(C)CC(=O)Nc4ccc(OC)nc4)n2)CCC3)c1 [Compound 238, 2-({2-[4-(2-methoxyethoxy)pyridin-2-yl]-5H,6H,7H-cyclopenta[d]pyrimidin-4-yl}(methyl)amino)-N-(6-methoxypyridin-3-yl)acetamide]",7.5
6,"COCCOc1ccnc(-c2nc3c(c(N(C)CC(=O)NC(C)(C)C)n2)CCC3)c1 [Compound 239, N-tert-butyl-2-({2-[4-(2-methoxyethoxy)pyridin-2-yl]-5H,6H,7H-cyclopenta[d]pyrimidin-4-yl}(methyl)amino)acetamide]",7.8
7,"CN(CC(=O)Nc1cncc(F)c1)c1nc(-c2cc3ccccc3cn2)nc2c1CCC2 [Compound 240, N-(5-fluoropyridin-3-yl)-2-{[2-(isoquinolin-3-yl)-5H,6H,7H-cyclopenta[d]pyrimidin-4-yl](methyl)amino}acetamide]",7.1
8,"CN(CC(=O)NC(C)(C)C)c1nc(-c2cc(OCCF)ccn2)nc2c1CCC2 [Compound 241, N-tert-butyl-2-({2-[4-(2-fluoroethoxy)pyridin-2-yl]-5H,6H,7H-cyclopenta[d]pyrimidin-4-yl}(methyl)amino)acetamide]",8
9,"COc1ccc(NC(=O)CN(C)c2nc(-c3cc(OCCF)ccn3)nc3c2CCC3)cn1 [Compound 242, 2-({2-[4-(2-fluoroethoxy)pyridin-2-yl]-5H,6H,7H-cyclopenta[d]pyrimidin-4-yl}(methyl)amino)-N-(6-methoxypyridin-3-yl)acetamide]",7.7
10,"CN(CC(=O)Nc1cnn(C)c1)c1nc(-c2cc(OCCF)ccn2)nc2c1CCC2 [Compound 243, 2-({2-[4-(2-fluoroethoxy)pyridin-2-yl]-5H,6H,7H-cyclopenta[d]pyrimidin-4-yl}(methyl)amino)-N-(1-methyl-1H-pyrazol-4-yl)acetamide]",7.4
11,"COc1ccc(NC(=O)CN(C)c2nc(-c3cc4cccnc4cn3)nc3c2CCC3)cn1 [Compound 244, N-(6-methoxypyridin-3-yl)-2-{methyl[2-(1,7-naphthyridin-6-yl)-5H,6H,7H-cyclopenta[d]pyrimidin-4-yl]amino}acetamide]",6.4
12,"CN(CC(=O)NC(C)(C)C)c1nc(-c2cc(OC3COC3)ccn2)nc2c1CCC2 [Compound 245, N-tert-butyl-2-[methyl({2-[4-(oxetan-3-yloxy)pyridin-2-yl]-5H,6H,7H-cyclopenta[d]pyrimidin-4-yl})amino]acetamide]",7.7
13,"COc1ccc(NC(=O)[C@@H](C)N(C)c2nc(-c3cc4ccccc4cn3)nc3c2CCC3)cn1 [Compound 250, (2R)-2-{[2-(isoquinolin-3-yl)-5H,6H,7H-cyclopenta[d]pyrimidin-4-yl](methyl)amino}-N-(6-methoxypyridin-3-yl)propanamide]",7.4
14,"C[C@H](C(=O)Nc1cccc(F)c1)N(C)c1nc(-c2cc(OCCO)ccn2)nc2c1CCC2 [Compound 251, (2R)—N-(3-fluorophenyl)-2-({2-[4-(2-hydroxyethoxy)pyridin-2-yl]-5H,6H,7H-cyclopenta[d]pyrimidin-4-yl}(methyl)amino)propanamide]",8.3

# Continued, values first:
row,pEC50,SMILES
1,7.9,"CN(CC(=O)Nc1cccc(F)c1)c1nc(-c2cc(OCCN3CCCC3)ccn2)nc2c1CCC2 [Compound 252, N-(3-fluorophenyl)-2-[methyl(2-{4-[2-(pyrrolidin-1-yl)ethoxy]pyridin-2-yl}-5H,6H,7H-cyclopenta[d]pyrimidin-4-yl)amino]acetamide]"
2,7.6,"COc1ccc(NC(=O)CN(C)c2nc(-c3cc(OC4COC4)ccn3)nc3c2CCC3)cn1 [Compound 253, N-(6-methoxypyridin-3-yl)-2-[methyl({2-[4-(oxetan-3-yloxy)pyridin-2-yl]-5H,6H,7H-cyclopenta[d]pyrimidin-4-yl})amino]acetamide]"
3,7,"CN(CC(=O)Nc1cnn(C)c1)c1nc(-c2cc(OC3COC3)ccn2)nc2c1CCC2 [Compound 254, 2-[methyl({2-[4-(oxetan-3-yloxy)pyridin-2-yl]-5H,6H,7H-cyclopenta[d]pyrimidin-4-yl})amino]-N-(1-methyl-1H-pyrazol-4-yl)acetamide]"
4,6.9,"CN(CC(=O)N1CCCCC1)c1nc(-c2cc3ccccc3cn2)nc2c1CCC2 [Compound 255, 2-{[2-(isoquinolin-3-yl)-5H,6H,7H-cyclopenta[d]pyrimidin-4-yl](methyl)amino}-1-(piperidin-1-yl)ethan-1-one]"
5,6.6,"CN1CCN(C(=O)CN(C)c2nc(-c3cc4ccccc4cn3)nc3c2CCC3)CC1 [Compound 256, 2-{[2-(isoquinolin-3-yl)-5H,6H,7H-cyclopenta[d]pyrimidin-4-yl](methyl)amino}-1-(4-methylpiperazin-1-yl)ethan-1-one]"
6,7,"COc1ccc(NC(=O)CN(C)c2nc(-c3cc4ncccc4cn3)nc3c2CCC3)cn1 [Compound 257, N-(6-methoxypyridin-3-yl)-2-{methyl[2-(1,6-naphthyridin-7-yl)-5H,6H,7H-cyclopenta[d]pyrimidin-4-yl]amino}acetamide]"
7,6.3,"COc1ccc(NC(=O)CN(C)c2nc(-c3cc4cnccc4cn3)nc3c2CCC3)cn1 [Compound 258, N-(6-methoxypyridin-3-yl)-2-{methyl[2-(2,6-naphthyridin-3-yl)-5H,6H,7H-cyclopenta[d]pyrimidin-4-yl]amino}acetamide]"
8,7.1,"CCOc1ccnc(-c2nc3c(c(N(C)CC(=O)Nc4cnc(OC)nc4)n2)CCC3)c1 [Compound 259, 2-{[2-(4-ethoxypyridin-2-yl)-5H,6H,7H-cyclopenta[d]pyrimidin-4-yl](methyl)amino}-N-(2-methoxypyrimidin-5-yl)acetamide]"
9,7.6,"COc1ncc(NC(=O)CN(C)c2nc(-c3cc(OCC(C)(C)O)ccn3)nc3c2CCC3)cn1 [Compound 260, 2-({2-[4-(2-hydroxy-2-methylpropoxy)pyridin-2-yl]-5H,6H,7H-cyclopenta[d]pyrimidin-4-yl}(methyl)amino)-N-(2-methoxypyrimidin-5-yl)acetamide]"
